This is an account of results in patent US9034862B2, “Compositions and methods for the treatment of cancer” (priority 2011, dated 2015).

The subject of test [1] is human lung carcinoma A549. The test is described as follows: MTT assay, A549. It is filed as cell-based. For orientation: Tetrazolium dyes change colour on reduction, which living cells bring about.
Procedure: (§4) Solutions of the platinum compounds were freshly prepared in sterile PBS before use and their concentrations quantitated by atomic absorption spectroscopy. Cells were seeded on a 96-well plate (1200 cells per well for cancer cells and 1800 cells per well for the normal lung fibroblasts) in 100 μL RPMI or DMEM media, and incubated for 24 h. […] The cells were then treated with 20 μL of 3-(4,5-dimethylthiazol-2-yl)-2,5-diphenyltetrazolium bromide (MTT) (5 mg/mL in PBS) and incubated for 4 h. The medium was removed, 100 μL of DMSO was added to the cells, and the absorbance of the purple formazan was recorded at 560 nm using a BioTek Synergy HT multi-detection microplate plate reader. Each condition was performed in triplicate and three independent experiments were carried out for each cell line.
(§5) Human prostate carcinoma (PC3) and human cervix carcinoma (HeLa) cells were obtained from the ATCC. The human lung carcinoma cell line A549 was kindly provided by David E. Root (Whitehead Institute for Biomedical Research). Cells were incubated at 37° C. in 5% CO2 and grown in RPMI (PC3) or DMEM (A549 and HeLa) medium supplemented with 10% fetal bovine serum and 1% penicillin/streptomycin. Cells were passaged every 3 to 4 days and restarted from the frozen stock upon reaching passage number 20.
(§6) Solutions of the platinum agents were freshly prepared in sterile PBS before use and the platinum content was quantitated by AAS. Cells were seeded on 96 well plates (1200 cells per well) in 100 μL RPMI or DMEM media\ and incubated for 24 hours. […] The cells were then treated with 20 μL of 3-(4,5-dimethylthiazol-2-yl)-2,5-diphenyltetrazolium bromide (MTT) (5 mg/mL in PBS) and incubated for 4 h. The medium was removed, 100 μL of DMSO were added to the cells, and the absorbance of the purple formazan was recorded at 570 nm using a BioTek Synergy HT multi-detection microplate plate reader. For each cell line, three independent experiments were carried out in triplicate.
Test [2] deals with human cervix carcinoma HeLa cells. Description: MTT assay, HeLa. It counts as cell-based.
Procedure: as §4, §5, §6
Test [3] has as its system Human colon carcinoma HT29. The test is described as follows: MTT assay, HT29. It is filed as cell-based. As to the method:
Human colon carcinoma HT29, human breast carcinoma MCF7, human bone sarcoma U2OS, human prostate carcinoma PC3, and human cervix carcinoma HeLa cells were obtained from the ATCC. A2780/CP70 cisplatin-resistant human ovarian cancer cells were kindly provided by Dr. Stephen B. Howell (Moores UCSD Cancer Center) and the human lung carcinoma cell lines A549 and normal lung fibroblast MRC5 by David E. Root (Whitehead Institute for Biomedical Research). Cells were incubated at 37° C. in 5% CO2 and grown in RPMI (HT29, A2780/CP70, and PC3) or DMEM (A549, MRC5, HeLa, MCF7, and U2OS) medium supplemented with 10% fetal bovine serum and 1% penicillin/streptomycin. Cells were passed every 3 to 4 days and restarted from a frozen stock upon reaching pass number 20.
Solutions of the platinum compounds were freshly prepared in sterile PBS before use and their concentrations quantitated by atomic absorption spectroscopy. […] The cells were then treated with 20 μL of 3-(4,5-dimethylthiazol-2-yl)-2,5-diphenyltetrazolium bromide (MTT) (5 mg/mL in PBS) and incubated for 4 h. The medium was removed, 100 μL of DMSO was added to the cells, and the absorbance of the purple formazan was recorded at 560 nm using a BioTek Synergy HT multi-detection microplate plate reader. Each condition was performed in triplicate and three independent experiments were carried out for each cell line.

Test [4] deals with calf thymus DNA. The test is described as follows: Ethidium bromide DNA-binding competition, Scatchard analysis. Set-up: key: competitive (type A); non-competitive (type D); both (type B); No inhibition of ethidium binding is labeled as type C.
Source text: Using this approach, it is possible to determine whether the inhibition of ethidium binding is competitive (type A), non-competitive (type D), or both (type B). No inhibition of ethidium binding is labeled as type C.
Test [5] relates to Gaussia luciferase expression in A549 cells. The settings on record: ratio of recovery of transcription level vs. time. As to the method:
(§1) Vector Construction and Preparation. […] Preparation of Platinated Insertion Strand. […] The suspension was centrifuged. To a solution of 0.2 mM 16-mer oligonucleotide 5′-[…]*[…] The reaction mixture was incubated in the dark at 37° C. overnight. The reaction was stopped when the solution was frozen. […] After purification, the platinated DNA solution was dialyzed against H2O and lyophilized. […] The insertion strand was further analyzed for nucleotide composition by nuclease S1 digestion to confirm the platination site following a protocol published previously (Table 13) (e.g., see J Am Chem Soc 2007, 129, 6370-6371). The platinated and unplatinated DNA strands (40 μM) were phosphorylated by T4 PNK (0.67 U/μL) at 37° C. for 3 h, followed by a phenol/chloroform/isoamyl alcohol extraction to remove the enzyme. The phosphorylated DNA strands were ethanol precipitated and stored in −80° C. at a concentration of 100 pmol/μL.
(§2) Briefly, a 600 μg quantity of pGLuc8temG plasmid was digested with 30 U Nt.BbvCI at 37° C. for 1 h. The reaction mixture was heated at 80° C. for 20 min to deactivate the enzyme, followed by a phenol/chloroform/isoamyl alcohol extraction to remove the enzyme. The mixture was dialyzed against H2O overnight at 4° C. The plasmid was further digested with 30 U Nt.BspQI at 50° C. for 1 h, and the enzyme was heat-deactivated and removed by a phenol/chloroform/isoamyl alcohol extraction. The nicked plasmid was mixed with 1,000 equiv of complementary DNA strand 5′-[…] (SEQ ID NO: 2) in a buffer of 10 mM Tris-HCl, 2 mM MgCl2, 0.4 M NaCl, pH 7.4, heated at 80° C. for 5 min, and subsequently cooled at 4° C. for 5 min for 10 cycles. […] A 120 μg quantity of the gapped plasmid was annealed with 100 equiv of the insertion strand in a buffer of 10 mM Tris-HCl, 2 mM MgCl2, 0.4 M NaCl, pH 7.4 from 90° C. to 4° C. at −1° C./min in a thermocycler. The platinated plasmid was dialyzed against H2O at 4° C. overnight and further purified by treatment with 30 U BsmBI at 55° C. for 1 h. The closed-circular form of plasmid was purified and concentrated by isopycnic centrifugation, followed by n-butanol extraction and ethanol precipitation. The plasmids were quantitated by a Quant-iT™ PicoGreen® dsDNA Kit from Invitrogen (Carlsbad, Calif.), and stored in −80° C. in TE buffer (10 mM Tris-HCl, 2 mM EDTA, pH 7.4).
(§3) Transfection of platinated plasmids into mammalian cells was carried out as reported previously (e.g., see ChemBioChem 2011, 12, 1115-1123). A549 and HeLa cells were plated at 2,000 cells per well in 96-well plates. NTera-2 and HT29 cells were plated at 4,000 cells per well in 96-well plates. MCF7 and U2OS cells were plated at 5,000 cells per well in 96-well plates. The cells were allowed to attach and grow for 48 h, and then washed with antibiotic-free culture media right before transfection. Transient transfection of the cells was carried out using Lipofectamine 2000. Briefly, 10 ng of site specifically platinated probes was included in each well. The experiments were performed in quadruplicate. The probes were diluted in OptiMEM, and Lipofectamine was diluted in OptiMEM. The two solutions were combined and incubated for 20 min. The transfection mixture was delivered into each well, and the cells were incubated for 2 h. The cells were washed with antibiotic-free culture media to remove the transfection mixture. A 100 μL volume of fresh, antibiotic-free media was added into each well to start the transcription assay. […]

Test [6] has as its system Gaussia luciferase expression in HT29 cells. The settings on record: ratio of recovery of transcription level vs. time. As to the method: as §1, §2, §3
Test [7] deals with Gaussia luciferase expression in HeLa cells. Conditions: ratio of recovery of transcription level vs. time. As to the method: as §1, §2, §3
Test [8] deals with Gaussia luciferase expression in MCF7 cells. The settings on record: ratio of recovery of transcription level vs. time. As to the method:
as §1, §2, §3

In test [9] the test system is Gaussia luciferase expression in U2OS cells. The settings on record: ratio of recovery of transcription level vs. time. As to the method: as §1, §2, §3

Broadly, the IC50 is the concentration needed to halve the response being measured. As for “cis-[Pt(NH3)2(phenanthridine)Cl]NO3 [phenanthriplatin]”, the IC50 in [1] (Table 3, A549 Lung, 72-h incubation) came out at 0.22 ± 0.01 µM; in test [1] (Table 4, A549 human lung carcinoma, 72 h incubation), 0.17 ± 0.002 µM; in test [1] (Table 5, A549, 72-h incubation), 0.22 ± 0.01 µM; in test [1] (Table 11 (Example 3), A549 Lung, 72 h) it was 0.22 ± 0.006 µM; in test [1] (Table 14, A549, MTT assay) it was 0.17 ± 0.01 µM; in test [2] (Table 3, HeLa Cervix, 72-h incubation) it was 0.3 ± 0.02 µM. In addition, the IC50 in test [2] (Table 5, HeLa, 72-h incubation) came to 0.3 ± 0.02 µM; in test [2] (Table 11 (Example 3), HeLa Cervix, 72 h) it was 0.21 ± 0.035 µM; in test [2] (Table 14, HeLa, MTT assay) it was 0.37 ± 0.04 µM; in test [3] (Table 3, HT29 Colorectal, 72-h incubation) it was 2.02 ± 0.04 µM; in test [3] (Table 5, HT29, 72-h incubation), 2.02 ± 0.04 µM; in test [3] (Table 14, HT29, MTT assay) it was 2.02 ± 0.04 µM. Further, the “type of inhibition of ethidium binding (Scatchard)” value is on record as “type D” in [4] (12-h incubation period) and “type C” in [4] (1 min incubation period). Besides, the “recovery rate of transcription (S)” value in test [5] is 0.263; in [6] it was 0.884; in test [7], 0.434; in [8], 0.337; in [9] it was 0.805.
